# Data reported in ChEMBL document CHEMBL4004849, “Tetrazolylmethyl quinolines: Design, docking studies, synthesis, anticancer and antifungal analyses” (2017).
# Calls of active or inactive are those of the source. The calls are words filed in the database; no cut-off is given here.
# Tested on: OVCAR-5
# Assay: Growth inhibition of human OVCAR5 cells at 10^-5 M incubated for 48 hrs by sulforhodamine B assay relative to control
# Type: functional
# Conditions: not given
row,SMILES,growth inhibition (GI)
1,Fc1ccc2nc(Cl)c(Cn3nnc(Cc4ccccc4)n3)cc2c1,Active

# Tested on: TK-10
# Assay: Growth inhibition of human TK10 cells at 10^-5 M incubated for 48 hrs by sulforhodamine B assay relative to control
# Type: functional
# Conditions: not given
row,SMILES,growth inhibition (GI)
1,Fc1ccc2nc(Cl)c(Cn3nnc(Cc4ccccc4)n3)cc2c1,Active

# Tested on: OVCAR-8
# Assay: Growth inhibition of human OVCAR8 cells at 10^-5 M incubated for 48 hrs by sulforhodamine B assay relative to control
# Type: functional
# Conditions: not given
row,SMILES,growth inhibition (GI)
1,Fc1ccc2nc(Cl)c(Cn3nnc(Cc4ccccc4)n3)cc2c1,Active

# Tested on: MOLT-4
# Assay: Growth inhibition of human MOLT4 cells at 10^-5 M incubated for 48 hrs by sulforhodamine B assay relative to control
# Type: functional
# Conditions: not given
row,SMILES,growth inhibition (GI)
1,Fc1ccc2nc(Cl)c(Cn3nnc(Cc4ccccc4)n3)cc2c1,Active

# Tested on: MCF7
# Assay: Growth inhibition of human MCF7 cells at 10^-5 M incubated for 48 hrs by sulforhodamine B assay relative to control
# Type: functional
# Conditions: not given
row,SMILES,growth inhibition (GI)
1,Fc1ccc2nc(Cl)c(Cn3nnc(Cc4ccccc4)n3)cc2c1,Active

# Tested on: HCT-15
# Assay: Growth inhibition of human HCT15 cells at 10^-5 M incubated for 48 hrs by sulforhodamine B assay relative to control
# Type: functional
# Conditions: not given
row,SMILES,growth inhibition (GI)
1,Fc1ccc2nc(Cl)c(Cn3nnc(Cc4ccccc4)n3)cc2c1,Active

# Tested on: SK-MEL-5
# Assay: Growth inhibition of human SK-MEL-5 cells at 10^-5 M incubated for 48 hrs by sulforhodamine B assay relative to control
# Type: functional
# Conditions: not given
row,SMILES,growth inhibition (GI)
1,Fc1ccc2nc(Cl)c(Cn3nnc(Cc4ccccc4)n3)cc2c1,Active

# Tested on: Candida albicans
# Assay: Antifungal activity against Candida albicans after 24 hrs by serial dilution method
# Type: functional
# Conditions: not given
row,SMILES,MIC
1,Fc1ccc2nc(Cl)c(Cn3nnc(Cc4ccccc4)n3)cc2c1,25 µg/mL

# Tested on: KM12
# Assay: Growth inhibition of human KM12 cells at 10^-5 M incubated for 48 hrs by sulforhodamine B assay relative to control
# Type: functional
# Conditions: not given
row,SMILES,growth inhibition (GI)
1,Fc1ccc2nc(Cl)c(Cn3nnc(Cc4ccccc4)n3)cc2c1,Active

# Tested on: HCC 2998
# Assay: Growth inhibition of human HCC2998 cells at 10^-5 M incubated for 48 hrs by sulforhodamine B assay relative to control
# Type: functional
# Conditions: not given
row,SMILES,growth inhibition (GI)
1,Fc1ccc2nc(Cl)c(Cn3nnc(Cc4ccccc4)n3)cc2c1,Active

# Tested on: EKVX
# Assay: Growth inhibition of human EKVX cells at 10^-5 M incubated for 48 hrs by sulforhodamine B assay relative to control
# Type: functional
# Conditions: not given
row,SMILES,growth inhibition (GI)
1,Fc1ccc2nc(Cl)c(Cn3nnc(Cc4ccccc4)n3)cc2c1,Active

# Tested on: HT-29
# Assay: Growth inhibition of human HT-29 cells at 10^-5 M incubated for 48 hrs by sulforhodamine B assay relative to control
# Type: functional
# Conditions: not given
row,SMILES,growth inhibition (GI)
1,Fc1ccc2nc(Cl)c(Cn3nnc(Cc4ccccc4)n3)cc2c1,Active

# Tested on: UO-31
# Assay: Growth inhibition of human UO31 cells at 10^-5 M incubated for 48 hrs by sulforhodamine B assay relative to control
# Type: functional
# Conditions: not given
row,SMILES,growth inhibition (GI)
1,Fc1ccc2nc(Cl)c(Cn3nnc(Cc4ccccc4)n3)cc2c1,Active

# Tested on: M14
# Assay: Growth inhibition of human M14 cells at 10^-5 M incubated for 48 hrs by sulforhodamine B assay relative to control
# Type: functional
# Conditions: not given
row,SMILES,growth inhibition (GI)
1,Fc1ccc2nc(Cl)c(Cn3nnc(Cc4ccccc4)n3)cc2c1,Active

# Tested on: NCI-H23
# Assay: Growth inhibition of human NCI-H23 cells at 10^-5 M incubated for 48 hrs by sulforhodamine B assay relative to control
# Type: functional
# Conditions: not given
row,SMILES,growth inhibition (GI)
1,Fc1ccc2nc(Cl)c(Cn3nnc(Cc4ccccc4)n3)cc2c1,Active

# Tested on: Aspergillus fumigatus
# Assay: Antifungal activity against Aspergillus fumigatus after 24 hrs by serial dilution method
# Type: functional
# Conditions: not given
row,SMILES,MIC
1,Fc1ccc2nc(Cl)c(Cn3nnc(Cc4ccccc4)n3)cc2c1,25 µg/mL

# Tested on: 786-0
# Assay: Growth inhibition of human 786-0 cells at 10^-5 M incubated for 48 hrs by sulforhodamine B assay relative to control
# Type: functional
# Conditions: not given
row,SMILES,growth inhibition (GI)
1,Fc1ccc2nc(Cl)c(Cn3nnc(Cc4ccccc4)n3)cc2c1,Active

# Tested on: SW-620
# Assay: Growth inhibition of human SW620 cells at 10^-5 M incubated for 48 hrs by sulforhodamine B assay relative to control
# Type: functional
# Conditions: not given
row,SMILES,growth inhibition (GI)
1,Fc1ccc2nc(Cl)c(Cn3nnc(Cc4ccccc4)n3)cc2c1,Active

# Tested on: BT-549
# Assay: Growth inhibition of human BT549 cells at 10^-5 M incubated for 48 hrs by sulforhodamine B assay relative to control
# Type: functional
# Conditions: not given
row,SMILES,growth inhibition (GI)
1,Fc1ccc2nc(Cl)c(Cn3nnc(Cc4ccccc4)n3)cc2c1,Active

# Tested on: Hs-578T
# Assay: Growth inhibition of human Hs 578T cells at 10^-5 M incubated for 48 hrs by sulforhodamine B assay relative to control
# Type: functional
# Conditions: not given
row,SMILES,growth inhibition (GI)
1,Fc1ccc2nc(Cl)c(Cn3nnc(Cc4ccccc4)n3)cc2c1,Active

# Tested on: SNB-75
# Assay: Growth inhibition of human SNB75 cells at 10^-5 M incubated for 48 hrs by sulforhodamine B assay relative to control
# Type: functional
# Conditions: not given
row,SMILES,growth inhibition (GI)
1,Fc1ccc2nc(Cl)c(Cn3nnc(Cc4ccccc4)n3)cc2c1,Active

# Tested on: K562
# Assay: Growth inhibition of human K562 cells at 10^-5 M incubated for 48 hrs by sulforhodamine B assay relative to control
# Type: functional
# Conditions: not given
row,SMILES,growth inhibition (GI)
1,Fc1ccc2nc(Cl)c(Cn3nnc(Cc4ccccc4)n3)cc2c1,Active

# Tested on: A549
# Assay: Growth inhibition of human A549/ATCC cells at 10^-5 M incubated for 48 hrs by sulforhodamine B assay relative to control
# Type: functional
# Conditions: not given
row,SMILES,growth inhibition (GI)
1,Fc1ccc2nc(Cl)c(Cn3nnc(Cc4ccccc4)n3)cc2c1,Active

# Tested on: COLO 205
# Assay: Growth inhibition of human COLO205 cells at 10^-5 M incubated for 48 hrs by sulforhodamine B assay relative to control
# Type: functional
# Conditions: not given
row,SMILES,growth inhibition (GI)
1,Fc1ccc2nc(Cl)c(Cn3nnc(Cc4ccccc4)n3)cc2c1,Active

# Tested on: RXF 393
# Assay: Growth inhibition of human RXF393 cells at 10^-5 M incubated for 48 hrs by sulforhodamine B assay relative to control
# Type: functional
# Conditions: not given
row,SMILES,growth inhibition (GI)
1,Fc1ccc2nc(Cl)c(Cn3nnc(Cc4ccccc4)n3)cc2c1,Active

# Tested on: U-251
# Assay: Growth inhibition of human U251 cells at 10^-5 M incubated for 48 hrs by sulforhodamine B assay relative to control
# Type: functional
# Conditions: not given
row,SMILES,growth inhibition (GI)
1,Fc1ccc2nc(Cl)c(Cn3nnc(Cc4ccccc4)n3)cc2c1,Active

# Tested on: SK-MEL-28
# Assay: Growth inhibition of human SK-MEL-28 cells at 10^-5 M incubated for 48 hrs by sulforhodamine B assay relative to control
# Type: functional
# Conditions: not given
row,SMILES,growth inhibition (GI)
1,Fc1ccc2nc(Cl)c(Cn3nnc(Cc4ccccc4)n3)cc2c1,Active

# Tested on: SNB-19
# Assay: Growth inhibition of human SNB19 cells at 10^-5 M incubated for 48 hrs by sulforhodamine B assay relative to control
# Type: functional
# Conditions: not given
row,SMILES,growth inhibition (GI)
1,Fc1ccc2nc(Cl)c(Cn3nnc(Cc4ccccc4)n3)cc2c1,Active

# Tested on: SR
# Assay: Growth inhibition of human SR cells at 10^-5 M incubated for 48 hrs by sulforhodamine B assay relative to control
# Type: functional
# Conditions: not given
row,SMILES,growth inhibition (GI)
1,Fc1ccc2nc(Cl)c(Cn3nnc(Cc4ccccc4)n3)cc2c1,Active

# Tested on: UACC-62
# Assay: Growth inhibition of human UACC62 cells at 10^-5 M incubated for 48 hrs by sulforhodamine B assay relative to control
# Type: functional
# Conditions: not given
row,SMILES,growth inhibition (GI)
1,Fc1ccc2nc(Cl)c(Cn3nnc(Cc4ccccc4)n3)cc2c1,Active

# Tested on: T47D
# Assay: Growth inhibition of human T47D cells at 10^-5 M incubated for 48 hrs by sulforhodamine B assay relative to control
# Type: functional
# Conditions: not given
row,SMILES,growth inhibition (GI)
1,Fc1ccc2nc(Cl)c(Cn3nnc(Cc4ccccc4)n3)cc2c1,Active

# Tested on: ACHN
# Assay: Growth inhibition of human ACHN cells at 10^-5 M incubated for 48 hrs by sulforhodamine B assay relative to control
# Type: functional
# Conditions: not given
row,SMILES,growth inhibition (GI)
1,Fc1ccc2nc(Cl)c(Cn3nnc(Cc4ccccc4)n3)cc2c1,Active

# Tested on: LOX IMVI
# Assay: Growth inhibition of human LOXIMVI cells at 10^-5 M incubated for 48 hrs by sulforhodamine B assay relative to control
# Type: functional
# Conditions: not given
row,SMILES,growth inhibition (GI)
1,Fc1ccc2nc(Cl)c(Cn3nnc(Cc4ccccc4)n3)cc2c1,Active

# Tested on: SF-295
# Assay: Growth inhibition of human SF295 cells at 10^-5 M incubated for 48 hrs by sulforhodamine B assay relative to control
# Type: functional
# Conditions: not given
row,SMILES,growth inhibition (GI)
1,Fc1ccc2nc(Cl)c(Cn3nnc(Cc4ccccc4)n3)cc2c1,Active

# Tested on: NCI-H226
# Assay: Growth inhibition of human NCI-H226 cells at 10^-5 M incubated for 48 hrs by sulforhodamine B assay relative to control
# Type: functional
# Conditions: not given
row,SMILES,growth inhibition (GI)
1,Fc1ccc2nc(Cl)c(Cn3nnc(Cc4ccccc4)n3)cc2c1,Active

# Tested on: SN12C
# Assay: Growth inhibition of human SN12C cells at 10^-5 M incubated for 48 hrs by sulforhodamine B assay relative to control
# Type: functional
# Conditions: not given
row,SMILES,growth inhibition (GI)
1,Fc1ccc2nc(Cl)c(Cn3nnc(Cc4ccccc4)n3)cc2c1,Active

# Tested on: MDA-MB-231
# Assay: Growth inhibition of human MDA-MB-231/ATCC cells at 10^-5 M incubated for 48 hrs by sulforhodamine B assay relative to control
# Type: functional
# Conditions: not given
row,SMILES,growth inhibition (GI)
1,Fc1ccc2nc(Cl)c(Cn3nnc(Cc4ccccc4)n3)cc2c1,Active

# Tested on: SK-OV-3
# Assay: Growth inhibition of human SKOV3 cells at 10^-5 M incubated for 48 hrs by sulforhodamine B assay relative to control
# Type: functional
# Conditions: not given
row,SMILES,growth inhibition (GI)
1,Fc1ccc2nc(Cl)c(Cn3nnc(Cc4ccccc4)n3)cc2c1,Active

# Tested on: HL-60(TB)
# Assay: Growth inhibition of human HL-60(TB) cells at 10^-5 M incubated for 48 hrs by sulforhodamine B assay relative to control
# Type: functional
# Conditions: not given
row,SMILES,growth inhibition (GI)
1,Fc1ccc2nc(Cl)c(Cn3nnc(Cc4ccccc4)n3)cc2c1,Active

# Tested on: OVCAR-3
# Assay: Growth inhibition of human OVCAR3 cells at 10^-5 M incubated for 48 hrs by sulforhodamine B assay relative to control
# Type: functional
# Conditions: not given
row,SMILES,growth inhibition (GI)
1,Fc1ccc2nc(Cl)c(Cn3nnc(Cc4ccccc4)n3)cc2c1,Active

# Tested on: OVCAR-4
# Assay: Growth inhibition of human OVCAR4 cells at 10^-5 M incubated for 48 hrs by sulforhodamine B assay relative to control
# Type: functional
# Conditions: not given
row,SMILES,growth inhibition (GI)
1,Fc1ccc2nc(Cl)c(Cn3nnc(Cc4ccccc4)n3)cc2c1,Active

# Tested on: Aspergillus fumigatus
# Assay: Antifungal activity against Aspergillus fumigatus at 100 ug/ml by disc diffusion method
# Type: functional
# Conditions: read-out: IZ
row,SMILES,zone of inhibition at 100 µg/mL
1,Fc1ccc2nc(Cl)c(Cn3nnc(Cc4ccccc4)n3)cc2c1,15 mm

# Tested on: SF-268
# Assay: Growth inhibition of human SF268 cells at 10^-5 M incubated for 48 hrs by sulforhodamine B assay relative to control
# Type: functional
# Conditions: not given
row,SMILES,growth inhibition (GI)
1,Fc1ccc2nc(Cl)c(Cn3nnc(Cc4ccccc4)n3)cc2c1,Active

# Tested on: SF-539
# Assay: Growth inhibition of human SF539 cells at 10^-5 M incubated for 48 hrs by sulforhodamine B assay relative to control
# Type: functional
# Conditions: not given
row,SMILES,growth inhibition (GI)
1,Fc1ccc2nc(Cl)c(Cn3nnc(Cc4ccccc4)n3)cc2c1,Active

# Tested on: UACC-257
# Assay: Growth inhibition of human UACC257 cells at 10^-5 M incubated for 48 hrs by sulforhodamine B assay relative to control
# Type: functional
# Conditions: not given
row,SMILES,growth inhibition (GI)
1,Fc1ccc2nc(Cl)c(Cn3nnc(Cc4ccccc4)n3)cc2c1,Active
